Experimental data from US7138410B2, “Aza-bicyclic N-biarylamides with affinity for the α7 nicotinic acetylcholine receptor” (Bayer HealthCare AG, priority 2002, dated 2006).
Where a name gives a salt, the structure may show the parent alone.

Each compound was assayed against T1, α7 nAChR (Rattus norvegicus, UniProt Q05941) (assay: Affinity for α7 nAChR by inhibition of [3H]-methyllycaconitine binding to rat brain membranes). Conditions: not given.
T1 construct: Rat brain tissue (hippocampus or whole brain) is homogenized in homogenization buffer; from tissue; host or cells: rat brain (hippocampus or whole brain), P2 membrane fraction
T1 sequence (Q05941 23-502): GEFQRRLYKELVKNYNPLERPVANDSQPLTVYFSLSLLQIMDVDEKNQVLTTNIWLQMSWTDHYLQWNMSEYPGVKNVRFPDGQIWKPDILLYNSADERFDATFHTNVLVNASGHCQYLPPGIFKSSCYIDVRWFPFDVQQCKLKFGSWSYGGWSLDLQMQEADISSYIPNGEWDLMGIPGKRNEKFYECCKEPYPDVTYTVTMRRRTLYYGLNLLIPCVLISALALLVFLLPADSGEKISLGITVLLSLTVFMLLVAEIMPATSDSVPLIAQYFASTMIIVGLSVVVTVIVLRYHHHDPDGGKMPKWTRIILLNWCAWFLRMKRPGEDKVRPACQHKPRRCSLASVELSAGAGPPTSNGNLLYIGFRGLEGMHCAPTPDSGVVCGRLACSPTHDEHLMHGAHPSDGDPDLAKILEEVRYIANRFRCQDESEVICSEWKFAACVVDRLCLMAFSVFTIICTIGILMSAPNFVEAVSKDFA
Experimental: 1. Determination of the Affinity of Test Substances for α7 nAChR by Inhibition of [^3H]-methyllycaconitine Binding to Rat Brain Membranes
The [^3H]-methyllycaconitine binding assay is a modification of the method described by Davies et al. (Neuropharmacol. 1999, 38, 679–690).
Rat brain tissue (hippocampus or whole brain) is homogenized in homogenization buffer (10% w/v, 0.32 M sucrose, 1 mM EDTA, 0.1 mM phenylmethylsulfonyl fluoride (PMSF), 0.01% (w/v) NaN3, pH 7.4, 4° C.) at 600 rpm in a glass homogenizer. The homogenate is centrifuged (1000×g, 4° C., 10 min) and the supernatant is removed. The pellet is resuspended (20% w/v) and the suspension is centrifuged (1000×g, 4° C., 10 min). The two supernatants are combined and centrifuged (15 000×g, 4° C., 30 min). The pellet obtained in this way is referred to as the P2 fraction.
The P2 pellet is washed twice with binding buffer (50 mM Tris-HCl, 1 mM MgCl2, 120 mM NaCl, 5 mM KCl, 2 mM CaCl2, pH 7.4), and centrifuged (15 000×g, 4° C., 30 min).
The P2 membranes are resuspended in binding buffer and incubated in a volume of 250 μl (amount of membrane protein 0.1–0.5 mg) in the presence of 1–5 nM [^3H]-methyllycaconitine, 0.1% (w/v) BSA (bovine serum albumin) and various concentrations of the test substance at 21° C. for 2.5 h. The nonspecific binding is determined by incubation in the presence of 1 μM α-bungarotoxin or 100 μM nicotine or 10 μM MLA (methyllycaconitine).
The incubation is stopped by adding 4 ml of PBS (20 mM Na2HPO4, 5 mM KH2PO4, 150 mM NaCl, pH 7.4, 4° C.) and filtering through type A/E glass fibre filters (Gelman Sciences) which have previously been placed in 0.3% (v/v) polyethyleneimine (PEI) for 3 h. The filters are washed twice with 4 ml of PBS (4° C.), and the bound radioactivity is determined by scintillation measurement. All the assays are carried out in triplicate. The dissociation constant Ki of the test substance is determined from the IC50 of the compounds (concentration of the test substance at which 50% of the ligand bound to the receptor is displaced), the dissociation constant KD and the concentration L of [^3H]-methyllycaconitine using the equation Ki=IC50/(1+L/KD).
Work on `O=C(CC1CN2CCC1CC2)Nc1cccc(-c2ccc(CO)cc2)c1` (stereo not shown) [Example 9, 2-(1-Azabicyclo[2.2.2]oct-3-yl)-N-[4′-(hydroxymethyl)-1,1′-biphenyl-3-yl]acetamide Hydrochloride] yielded a Ki of 519 nM. `O=C(Nc1ccc(-c2ccc(CO)cc2)cc1)[C@H]1CN2CCC1CC2` [Example 14, (3R)-N-[4′-(Hydroxymethyl)-1,1′-biphenyl-4-yl]-1-azabicyclo[2.2.2]octane-3-carboxamide Hydrochloride] showed a Ki of 20 nM. `O=C(Nc1ccc(-c2ccc(CO)cc2)cc1)[C@@H]1CN2CCC1CC2` [Example 15, (3S)-N-[4′-(Hydroxymethyl)-1,1′-biphenyl-4-yl]-1-azabicyclo[2.2.2]octane-3-carboxamide Hydrochloride] was tested, and the Ki was 39 nM. In the case of `CC(C)(O)c1ccc(-c2ccc(NC(=O)[C@H]3CN4CCC3CC4)cc2)cc1` [Example 20, (3R)-N-[4′-(1-Hydroxy-1-methylethyl)-1,1′-biphenyl-4-yl]-1-azabicyclo[2.2.2]octane-3-carboxamide], the Ki is reported as 10 nM. Work on `NC(=O)c1ccc(-c2ccc(NC(=O)[C@H]3CN4CCC3CC4)cc2)cc1` [Example 21, (3R)-N-[4′-(Aminocarbonyl)-1,1′-biphenyl-4-yl]-1-azabicyclo[2.2.2]octane-3-carboxamide Hydrochloride] yielded a Ki of 98 nM. `O=C(Nc1ccc(-c2ccc(CO)c(F)c2)cc1)[C@H]1CN2CCC1CC2` [Example 22, (3R)-N-[4′-(Hydroxymethyl)-3′-fluoro-1,1′-biphenyl-4-yl]-1-azabicyclo[2.2.2]octane-3-carboxamide] showed a Ki of 58 nM. `CNC(=O)OCc1ccc(-c2ccc(NC(=O)[C@H]3CN4CCC3CC4)cc2)cc1` [Example 23, (4′-{[(3R)-1-Azabicyclo[2.2.2]oct-3-ylcarbonyl]amino}-1,1′-biphenyl-4-yl)methyl Methylcarbamate] was tested, and the Ki was 39 nM.

Same assay, conditions: [3H]-methyllycaconitine displacement, rat brain P2 membranes, 21° C., 2.5 h; Ki=IC50/(1+L/KD); read-out: Ki
`CC(C)NC(=O)OCc1ccc(-c2ccc(NC(=O)[C@H]3CN4CCC3CC4)cc2)cc1` [Example 24, (4′-{[(3R)-1-Azabicyclo[2.2.2]oct-3-ylcarbonyl]amino}-1,1′-biphenyl-4-yl)methyl Isopropylcarbamate] showed a Ki of 230 nM. Work on `CC(=O)c1ccc(-c2ccc(NC(=O)CC3CN4CCC3CC4)cc2)cc1` (stereo not shown) [Example 26] yielded a Ki of 310 nM. In the case of `CC(=O)c1ccccc1-c1ccc(NC(=O)CC2CN3CCC2CC3)cc1` (stereo not shown) [Example 31], the Ki is reported as 420 nM.
